Patent publication US20230135373A1, “METHODS AND COMPOSITIONS FOR TREATING SLEEP APNEA” (APNIMED, INC. (DELAWARE), priority 2020, published 2023)

What was measured:
[1] = system: healthy human individuals; experiment: Pilot study of genioglossus muscle activity (EMGGG); type: in vivo
Description: In healthy human individuals, the effect of once daily taltirelin 5 mg on genioglossus muscle activity is measured in a pilot study.
A first group of the patients is given once daily taltirelin 5 mg. A second group of patients is given placebo. Genioglossus muscle activity (EMGGG, quantified as a percentage of maximum) is measured during quiet wakefulness. Each peak EMGGG of a single breath is measured and is plotted against the corresponding epiglottic pressure. In addition, EMGGG is measured during stable NREM sleep.

OSA human patients = experiment: Placebo-controlled, double-blinded, randomized, crossover trial in OSA; type: in vivo; settings: once daily 5-10 mg, 30 minutes before sleep
Description: A placebo-controlled, double-blinded, randomized, crossover trial in OSA human patients is performed. Participants receive treatment (once daily taltirelin 5-10 mg) or placebo in randomized order 30 minutes before sleep.

## CN1C(=O)C[C@@H](C(=O)N[C@@H](Cc2cnc[nH]2)C(=O)N2CCC[C@H]2C(N)=O)NC1=O [taltirelin]
[1]; once daily 5 mg, NREM sleep
  EMGGG activity during NREM sleep compared to placebo: much higher EMGGG activity
[1]; once daily 5 mg, subjects exhibiting REM sleep
  effect during REM sleep: effective during REM sleep
[1]; once daily taltirelin 5 mg vs placebo night, during sleep
  sleep-related reduction in pharyngeal muscle activity (EMGGG): partially or completely prevented
OSA human patients
  genioglossus muscle responsiveness to an increase in ventilatory drive: increased genioglossus muscle responsiveness
  oxygen levels (SaO2): increased oxygen levels
  sleep efficiency: improved sleep efficiency
  total sleep time: increased total sleep time
  upper airway muscle activity: improved upper airway muscle activity
  ventilation: improved ventilation
OSA human patients; all patients
  OSA severity: improvement in OSA severity
OSA human patients; vs placebo
  apnea hypopnea index: reduce the apnea hypopnea index
